Data: patent US20220016101A1 (ACADIA Pharmaceuticals Inc., priority 2018, published 2022)
Values joined by “and” are separate entries in the source; they are usually repeats but may differ in a detail not shown here. Equal values may be shown once.

Tests used:
[1] = tested on: adults with Parkinson's disease and depression; assay: SCOPA Sleep, open-label study in Parkinson's disease and depression; format: in vivo, human; conditions: interim, first 31 patients
From the text: “Scale of Outcomes in Parkinson's Disease (SCOPA) Sleep” is a scale developed for research in Parkinson disease to evaluate nighttime sleep and daytime sleepiness and has high internal consistency for the nighttime sleep and daytime sleepiness scales (0.88 and 0.91, respectively), and test-retest reliabilities (0.94 and 0.89, respectively). Scores on the SCOPA Sleep Scale show high correlations between the nighttime sleep scale and the Pittsburgh Sleep Quality Index (0.83), and between the daytime sleepiness scale and the Epworth Sleepiness Scale (0.81). The coefficient of variation of both the nighttime sleep and the daytime sleepiness scale can be higher than that of the Pittsburgh Sleep Quality Index and the Epworth Sleepiness Scale, indicating a better ability to detect differences between individuals. (Marinus J, Visser M, van Hilten J J, Lammers G J, Stiggelbout A M. Sleep. 2003; 26(8):1049-1054.)
(§1) Subjects can receive treatment as either monotherapy or adjunctively if inadequately controlled with SSRI/SNRI monotherapy. A primary endpoint of the study is change from baseline to Week 8 in the Hamilton Depression Scale 17-item (HAMD-17) total score. Secondary endpoints include Clinical Global Impression (CGI) scales (improvement and severity), Scale of Outcomes in PD-Sleep (SCOPA), and quality of life as measured by EuroQol-5 dimensions-5 levels (EQ-5D-5L).
At approximately 2, 4, and 6 weeks after start of dosing of study drug subjects returned to the clinic for assessments. Safety measures, HAMD-17, C-SSRS (Columbia Suicide Severity Rating Scale), CGI-S(Clinical Global Impression-Severity), and CGI-I (Clinical Global Impression-Improvement) were evaluated at all visits. […]
Continuous secondary efficacy endpoints (CGI-I, CGI-S, SCOPA, and EQ-5D-5L) were analyzed using similar MMRM models as for the primary efficacy endpoint, except that the Baseline value of the endpoint being analyzed was included in the model as a covariate instead of the Baseline HAMD-17 total score. […]

[2] = molecular target: serotonin transporter (Homo sapiens, UniProt P31645); assay: Receptor profile: affinity (Ki) at SERT; format: binding; conditions: data on file
Sequence of serotonin transporter (P31645 whole entry): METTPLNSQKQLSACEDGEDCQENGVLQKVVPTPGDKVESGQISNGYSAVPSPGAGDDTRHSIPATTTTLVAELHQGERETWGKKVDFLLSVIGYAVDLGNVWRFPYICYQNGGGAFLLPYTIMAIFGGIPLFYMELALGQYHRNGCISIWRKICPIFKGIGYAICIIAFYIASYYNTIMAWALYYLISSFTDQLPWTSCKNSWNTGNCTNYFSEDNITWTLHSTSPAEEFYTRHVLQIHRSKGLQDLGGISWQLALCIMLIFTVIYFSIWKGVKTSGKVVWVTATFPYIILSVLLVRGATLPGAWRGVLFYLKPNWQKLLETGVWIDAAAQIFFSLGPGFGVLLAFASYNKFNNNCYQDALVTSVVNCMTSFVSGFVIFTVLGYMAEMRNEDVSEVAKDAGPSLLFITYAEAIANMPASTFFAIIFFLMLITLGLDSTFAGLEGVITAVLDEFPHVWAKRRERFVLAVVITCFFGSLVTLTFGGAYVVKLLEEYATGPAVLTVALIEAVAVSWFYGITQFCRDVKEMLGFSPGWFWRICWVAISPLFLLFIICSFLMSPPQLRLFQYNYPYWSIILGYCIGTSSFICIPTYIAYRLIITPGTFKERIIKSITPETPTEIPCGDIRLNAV

[3] = molecular target: norepinephrine transporter (Homo sapiens, UniProt P23975); assay: Receptor profile: affinity (Ki) at NET; format: binding; conditions: data on file
Sequence of norepinephrine transporter (P23975 whole entry, species assumed): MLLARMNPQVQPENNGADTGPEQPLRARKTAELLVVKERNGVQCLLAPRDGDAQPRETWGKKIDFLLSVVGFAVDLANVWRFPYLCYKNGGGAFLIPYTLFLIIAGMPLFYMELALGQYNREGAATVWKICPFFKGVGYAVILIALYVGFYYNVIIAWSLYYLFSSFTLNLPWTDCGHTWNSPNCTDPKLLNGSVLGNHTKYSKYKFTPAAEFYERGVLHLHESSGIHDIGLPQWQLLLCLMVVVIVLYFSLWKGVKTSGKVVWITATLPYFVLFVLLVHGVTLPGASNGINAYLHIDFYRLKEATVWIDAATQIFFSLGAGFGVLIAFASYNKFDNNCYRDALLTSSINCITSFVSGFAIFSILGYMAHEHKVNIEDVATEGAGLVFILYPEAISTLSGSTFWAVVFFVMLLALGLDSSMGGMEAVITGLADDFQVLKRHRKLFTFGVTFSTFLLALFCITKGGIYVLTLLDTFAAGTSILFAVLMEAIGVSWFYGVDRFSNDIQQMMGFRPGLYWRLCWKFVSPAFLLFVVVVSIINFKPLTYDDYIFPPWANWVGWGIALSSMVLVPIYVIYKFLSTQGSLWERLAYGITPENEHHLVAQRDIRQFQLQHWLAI

[4] = molecular target: dopamine transporter (Homo sapiens, UniProt Q01959); assay: Receptor profile: affinity (Ki) at DAT; format: binding; conditions: data on file
Sequence of dopamine transporter (Q01959 whole entry): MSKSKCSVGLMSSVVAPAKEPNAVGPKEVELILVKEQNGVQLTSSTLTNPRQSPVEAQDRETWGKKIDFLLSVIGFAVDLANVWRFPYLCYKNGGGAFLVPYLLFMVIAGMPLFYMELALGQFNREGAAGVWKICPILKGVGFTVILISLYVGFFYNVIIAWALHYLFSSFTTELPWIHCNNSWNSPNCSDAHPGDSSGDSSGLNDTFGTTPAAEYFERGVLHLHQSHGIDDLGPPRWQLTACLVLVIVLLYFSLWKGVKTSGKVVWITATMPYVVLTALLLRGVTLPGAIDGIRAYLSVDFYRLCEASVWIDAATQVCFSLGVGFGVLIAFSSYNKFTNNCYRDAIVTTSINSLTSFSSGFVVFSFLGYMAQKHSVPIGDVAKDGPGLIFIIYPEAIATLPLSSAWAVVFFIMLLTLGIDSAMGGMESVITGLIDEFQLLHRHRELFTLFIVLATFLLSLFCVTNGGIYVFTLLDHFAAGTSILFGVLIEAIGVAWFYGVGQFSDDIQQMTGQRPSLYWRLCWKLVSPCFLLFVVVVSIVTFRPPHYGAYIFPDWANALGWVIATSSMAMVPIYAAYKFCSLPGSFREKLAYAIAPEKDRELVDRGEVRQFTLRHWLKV

[5] = tested on: adults with Parkinson's disease and depression; assay: Adverse events, open-label study in Parkinson's disease and depression; format: in vivo, human; conditions: of the first 31 patients; most common falls, UTI, diarrhea, nausea
From the text: as §1
Adverse events were classified into standard terminology using the Medical Dictionary for Regulatory Activities (MedDRA). Treatment-emergent adverse events (TEAEs), TEAEs leading to discontinuation, TEAEs related to study drug, TEAEs by maximum severity, serious adverse events (SAEs), and SAEs related to study drug were summarized.

[6] = tested on: patients with MDD and an inadequate response to an SSRI or SNRI; assay: HAMD-17 total score, adjunctive pimavanserin in MDD (Study ACP-103-042); format: in vivo, human; conditions: for Response Rate: 50% or greater reduction on HAMD-17
From the text: “Hamilton Depression Scale 17-item (HAMD-17)” is a multiple item questionnaire used to provide an indication of depression, and is known to those skilled in the art. The questionnaire is designed for adults to rate the severity of depression by probing mood, feelings of guilt, suicide ideation, insomnia, work and interests, agitation or retardation, anxiety, weight loss, and somatic symptoms. Each item on the questionnaire is scored on a 3 or 5 point scale, depending on the item, and the total score is compared to the corresponding descriptor. A score of 0-7 is considered to be normal. Scores of 14 or higher indicate moderate, severe, or very severe depression. Assessment time is estimated at 20 minutes. […] Key endpoints were change from baseline to the end of each stage for the HAMD-17 total score and SDS score. The study consisted of an 8- to 21-day screening period, a 10-week double-blind treatment period, and a safety follow up period of up to 30 days. Screening assessments consisted of the SAFER Interview ([…] al, Harv Rev Psychiatry. 2013; 21(5):269-74), which included the MADRS, CGI-S, and MGH ATRQ. […] All patients continued on their SSRI or SNRI at a stable dose for the duration of the study. […] Inadequate treatment response was determined through the administration of the MGH ATRQ administered during the SAFER interview. […] Clinic visits occurred weekly from Weeks 1 through 10. The MADRS was administered at screening and baseline. The HAMD-17, SDS, CGI, and KSS were administered at baseline and weekly during the study. Other endpoints such as the SF-12 were administered at baseline and Weeks 5 and 10. Treatment response was defined as a reduction of 50% from baseline for the HAMD-17 total score, and remission was defined as a HAMD-17 total score […] The determination of the subject's status and eligibility for randomization in Stage 2 was made in a double-blind manner.

[7] = Stage 1, subgroup baseline anxiety/somatization subscale score ≥7
[8] = Stage 2, subgroup baseline anxiety/somatization subscale score ≥7

CC(C)COc1ccc(CNC(=O)N(Cc2ccc(F)cc2)C2CCN(C)CC2)cc1 [pimavanserin, N-(4-Fluorophenylmethyl)-N-(1-methylpiperidin-4-yl)-N′-(4-(2-methylpropyloxy)phenylmethyl)carbamide]
SCOPA-Daytime Sleepiness change from Baseline to Week 8 [1]: −2.1 (0.4)
SCOPA-Global Sleep Quality change from Baseline to Week 8 [1]: −1.0 (0.4)
SCOPA-Nighttime Sleep change from Baseline to Week 8 [1]: −2.1 (0.7)
Ki [2]: > 1000 nM
Ki [3]: > 1000 nM
Ki [4]: > 1000 nM
patients reporting adverse events [5]: 13
NNT for remission ([6]; Stage 1): 8.1
early improvement (reduction from baseline in HAMD-17 total score of 20% or more) vs placebo ([6]; Stage 1): early improvement at week 1 was observed
response and remission rates vs placebo ([6]; Stage 1, Week 2 through Week 5): significantly (p<0.05) greater
HAMD-17 total score LSmean (SE) change from baseline to Week 5 ([6]; Stage 1, 34 mg QD + SSRI/SNRI): −11.5 (0.94)
Remission Rate ([6]; Stage 1, 34 mg QD + SSRI/SNRI): 23.5%
HAMD-17 total score LSmean (SE) change from baseline to Week 5 ([6]; Stage 1, 34 mg QD + SSRI/SNRI, listed as Pimavanserin): −11.5
Response Rate ([6]; Stage 1, 34 mg QD + SSRI/SNRI): 52.9%
NNT for response ([6]; Stage 1, response = reduction of 50% from baseline HAMD-17 total score): 3.6
HAMD-17 total score Diff in LSM (SE) vs placebo [6, 7]: −6.6 (1.64)
HAMD-17 total score effect size (Cohen's d) [6, 7]: 0.940
HAMD-17 total score LSM (SE) Change from Baseline to Week 5 ([6]; Stage 1, subgroup baseline anxiety/somatization subscale score ≥7, 34 mg QD + SSRI/SNRI): −14.1 (1.39)
HAMD-17 total score effect size (Cohen's d) ([6]; Stage 1 Week 5, 34 mg QD + SSRI/SNRI): 0.626 and ~0.6
HAMD-17 total score effect size (Cohen's d) ([6]; Stage 1 Week 5, 34 mg QD + SSRI/SNRI, listed as Pimavanserin): 0.626
HAMD-17 total score LSM change from baseline to Week 5 ([6]; Stage 2 (placebo non-responders re-randomized), 34 mg QD + SSRI/SNRI): −2.8
HAMD-17 Cohen's d ([6]; Stage 2, 34 mg QD + SSRI/SNRI): −0.107
HAMD-17 difference between pimavanserin and placebo (delta) ([6]; Stage 2, 34 mg QD + SSRI/SNRI): 0.5
Remission Rate ([6]; Stage 2, 34 mg QD + SSRI/SNRI): 3.4%
Response Rate ([6]; Stage 2, 34 mg QD + SSRI/SNRI): 6.9%
HAMD-17 total score Diff in LSM (SE) vs placebo [6, 8]: 0.9 (1.84)
HAMD-17 total score effect size (Cohen's d) [6, 8]: −0.173
HAMD-17 total score LSM (SE) Change from Baseline to Week 5 ([6]; Stage 2, subgroup baseline anxiety/somatization subscale score ≥7, 34 mg QD + SSRI/SNRI): −3.4 (1.25)
HAMD-17 effect size, treatment difference in LSmean change from baseline to Week 10 ([6]; continuous treatment for 10 weeks in Stages 1 and 2, 34 mg QD + SSRI/SNRI): 0.497
HAMD-17 total LSmean difference [standard error] pimavanserin vs placebo ([6]; overall (weighted Stage 1 and Stage 2), 34 mg QD + SSRI/SNRI): -1.7 (0.85)
